Assay results reported in article PMC3973022, “Quercetin and quercetin 3-O-glycosides from Bauhinia longifolia (Bong.) Steud. show anti-Mayaro virus activity” (Parasites & Vectors, 2014).
Values after ≈ are worked out from the molar mass of the structure shown. “Also recorded” adds a separate entry of the source.

How the values were obtained:
Mayaro virus (MAYV) = test: microbe, parasite or virus in culture; assay type: cell-based; conditions: for IC90: Vero, 24 h, read-out: IC90 (90% inhibitory concentration of viral replication); for IC50: read-out: IC50 (50% inhibitory concentration of viral replication), MAYV MOI 0.1 in Vero cells, 24 h treatment; for anti-MAYV activity (in words): concentrations tested 0–100 μg/ml
Protocol: (§1) Vero cells (African green monkey kidney, ATCC CCL-81) were grown at 37°C with 5% CO2, in Dulbecco’s modified Eagle’s medium (DMEM) (Life Technologies, USA) supplemented with 5% fetal bovine serum (Cultilab, BRA), 50 IU/mL of penicillin, and 50 μg/mL of streptomycin (Sigma-Aldrich, USA). Mayaro viruses (ATCC VR-66, lineage TR 4675) were propagated in Vero cells and viral stocks in 10% glycerol were kept at -70°C. Virus titer was determined by plaque assay (described under ‘Antiviral activity assay’).
Antiviral activity was evaluated using a virus yield inhibition assay. Briefly, confluent cell monolayers grown in 24-well plates were infected with MAYV (multiplicity of infection = 0.1) for 1 hour, then rinsed with PBS and treated for 24 hours (at 37°C and 5% CO2) with different concentrations (0–100 μg/ml) of flavonoids or extracts diluted in culture medium. After treatment, culture supernatants were recovered and used for titration of extracellular infectious virus particles. For virus titration, confluent cell monolayers in 24-well plates were infected with serial dilutions of recovered supernatants for 1 hour at 37°C, 5% CO2. After inoculum removal, cells were rinsed with PBS and the monolayer was incubated with fresh medium with 2% carboxymethylcellulose (Sigma-Aldrich, USA) for 48 hours at 37°C, 5% CO2. Finally, cells were fixed with 20% formaldehyde and stained with 0.5% crystal violet in 20% ethanol, and viral plaques were counted. […] P-values < 0.05 were considered statistically significant.

[1] = Cytotoxicity by dye-uptake (neutral red) assay; conditions: African green monkey
Protocol: as §1
Briefly, confluent cultures of Vero cells in 96-well microplates were treated with culture media containing different concentrations of the substances being tested. After 24 hours, the culture medium was replaced by a solution of 50 μg/mL neutral red and the cells were incubated for 3 hours, at 37°C, 5% CO2. Cells were then fixed with 20% formaldehyde and extracted with 50% methanol and 1% acetic acid, before measurement of absorbance at λ490 nm, using a spectrophotometer, to detect neutral red incorporation by living cells.

Compound	IC90 (Mayaro virus (MAYV); Mayaro virus) [µg/mL]	IC50 (Mayaro virus (MAYV); Mayaro virus) [µg/mL]	anti-MAYV activity (in words) (Mayaro virus (MAYV); Vero cells)	CC50 at 24 h [1] [µg/mL]	SI (Selectivity Index = CC50/IC50) (Mayaro virus (MAYV); CC50 in Vero cells / IC50 against MAYV)	inhibition at 25 µg/mL (Mayaro virus (MAYV); Mayaro virus, at 25 μg/mL, Vero cells, read-out: inhibition of MAYV replication/production) [%]
O=c1c(OC2OCC(O)C(O)C2O)c(-c2ccc(O)c(O)c2)oc2cc(O)cc(O)c12 (stereo not drawn) [Guaijaverin, quercetin-3-O-α-arabinoside]	> 100	> 100	did not show significant antiviral activity; also recorded: absence of anti-MAYV activity	795 ± 54 (≈ 1830 µM)	–	–
NC(=O)c1ncn([C@@H]2O[C@H](CO)[C@@H](O)[C@H]2O)n1 [Ribavirin, reference compound]	> 100	62 ± 4 (≈ 254 µM)	–	523 ± 42 (≈ 2140 µM)	–	–
C[C@@H]1O[C@@H](Oc2c(-c3ccc(O)c(O)c3)oc3cc(O)cc(O)c3c2=O)[C@H](O)[C@H](O)[C@H]1O [Quercitrin, quercetin-3-O-α-rhamnoside]	> 100	> 100	did not show significant antiviral activity; also recorded: absence of anti-MAYV activity	411 ± 46 (≈ 917 µM)	–	–
O=c1c(O)c(-c2ccc(O)c(O)c2)oc2cc(O)cc(O)c12 [Quercetin, quercetin]	19 ± 0.7 (≈ 62.9 µM)	10 ± 0.7 (≈ 33.1 µM)	showed significant anti-MAYV activity	941 ± 123 (≈ 3110 µM)	94	> 90
